This is an account of results in patent publication US9452988B2, “Bendamustine derivatives and methods of using same” (Ignyta, Inc., priority 2012, dated 2016).

A short description of data set [1]: Tumor and plasma levels, MDA-MB-231 tumor efficacy PK group. The settings on record: athymic nude, mouse, in vivo. The protocol:
(§1) A portion of the tumor bearing mice were dosed as a satellite PK group. Each group was dosed as described for the tumor efficacy group, however the PK group was euthanized and tissue samples collected at 1, 3 and 6 hours post dosing on day 2. The tissues collected included blood, lung, liver and tumor. Samples were analyzed for bendamustine HCl and the corresponding ester analogue as described in the LC-MS protocol section.
(§2) Plasma and other tissues were prepared for high performance liquid chromatography (HPLC)/mass spectrometric analysis according to a standard protocol following protein precipitation with acetonitrile containing an internal standard. The samples were then analyzed for both bendamustine HCl and bendamustine esters of the invention and alprenolol (internal standard) via HPLC coupled with tandem mass spectrometry. Tissue samples were homogenized in sodium phosphate buffer and the value obtained from the assay was multiplied by 3 to correct for dilution during processing.

In data set [2] the test system is H460 tumor cells (large cell lung cancer). Description: Nude mouse H460 tumor efficacy study. In kind it is in vivo, nu/nu mouse. The settings on record: tail vein. The protocol:
2×10^6 cells/100 ul in the mix of medium and Matrigel (1:1 ratio) solution was injected into right back flank of each nu/nu mouse. The implanted mice were monitored and measured with electric calipers. The study started when the tumors reached ˜150 mm^3 in size. The mice were measured and randomized into 9 groups with 10 mice in each group per the below table: […]

Data set [3] concerns MB-231 (HBC). Description: MTS cell assay, MB-231. Format: cell-based, Human. The settings on record: Homo sapiens, 72 hours. On the procedure:
Charles River Labs athymic nude mice bearing MDA-MB-231 breast carcinoma cell line subcutaneous xenografts (5×10^6 cells in matrigel) were sacrificed to make a tumor isolate. Using sterile instruments and working aseptically, the tumors were removed from the euthanized animal. The tumor was placed in a 50 mL sterile conical tube and 5 mL of trypsin was added. The tumor was cut into small pieces and incubated at 37° C. for 30 minutes. After incubation, a cell strainer was placed on a second, sterile, 50 mL conical tube and the contents of the first tube were placed in the cell strainer. The tissue was forced through the filter using the flat end of a syringe plunger. The cell strainer was washed with 5 mLs of media containing FBS. The cells were spun down and the supernatant was discarded. The cells were resuspended in 20 mLs of complete media containing P/S and placed in a 75 cm flask.
(§3) Human carcinoma cells (2,000 cells/well) were incubated with the desired concentration of the test molecule (0-200 μM) for 72 hours. The cells were then incubated with MTS solution (Promega) for 1-2 hours, and the compounds effects on cell proliferation was determined by measuring the absorbance at 490 nm. Cell growth was expressed as a percent of the appropriate control (placebo). […] All data reported was the mean±SE of three independent experiments.

Data set [4] is described as follows: CD-1 mice plasma pharmacokinetics, bendamustine C14 ester albumin nanoparticle i.v. Format: in vivo. The settings on record: mouse, iv; for Vd: Mean n = 3; for AUC(0-t): Mean n = 3, read-out: AUC0-6 of C14 Ester in plasma; for AUC(0-inf): Mean n = 3, read-out: AUC0-∞ of C14 Ester in plasma; for clearance: Mean n = 3, read-out: CL of C14 Ester; for half-life: Mean n = 3, read-out: t1/2 of C14 Ester in plasma (converted). The protocol: Another embodiment of the invention, bendamustine C14 ester was formulated into a nanoparticle intraveneous formulation according to the methods described above and administered to CD-1 mice. The amount of bendamustine (BM1) and bendamustine C14 ester was determined in the mice plasma.

A short description of data set [5]: Tumor and plasma levels, H460 tumor efficacy PK group. Conditions: nu/nu, mouse, in vivo. On the procedure: The formulations were administrated as 100 μL dose volume through tail vein injection within 30 minutes after compounds were formulated. All the mice were weighed and tumors measured twice weekly. At the last day of the study, plasma, tumor, lung, liver, spleen, left kidney, brain and legs were collected and quickly frozen for further analysis two hours post-dosing.
as §1, §2

Data set [6] has as its system H-460 (NSCLC). Description: MTS cell assay, H-460. Format: cell-based, Human. Conditions: Homo sapiens, NCI-H460, 72 hours. On the procedure: as §3
Data set [7] relates to MDA-MB-231 xenografts. Description: Nude mouse MDA-MB-231 tumor efficacy study. Format: in vivo, athymic nude mice. Conditions: tail vein day 1 and 2. The protocol:
Charles River Labs athymic nude mice were subcutaneous injected with 5×10^6 human tumor cells in matrigel. The tumor volume was monitored until an average tumor size of ˜150 mm^3 was obtained in the mouse population The mice were then randomized in to one of the nine treatment groups (summarized in table below) with a population of 10 mice per group (n=10). Each of the formulations were dosed at 100 μL fixed volume via tail vein injection on day 1 and day 2 of the study. Mice were weighed and the tumor volume measured every 3-4 days for 3 weeks of the study duration.

The test system of data set [8] is RPMI 8226 (Human Plasmacytoma, Myeloma B Cells). The protocol: Cells (originated from ATCC) were cultured on RPMI medium. Cell suspension was centrifuged and resuspended in 50% Matrigel/HBSS to a final concentration of 7×10^7 cells/ml. The suspension was implanted s.c. in the right flank of the anesthetized mouse at a volume of 100 μl.
Seven ml saline were added to the original vial containing 3.5 mg powder resulting in 0.5 mg/ml. Three ml of this solution were added to 27 ml saline to receive 0.05 mg/ml concentration.
bendamustine preparation: 13.5 mg was dissolved in 3.6 ml of 1:1 mixture of 0.9% saline/5% mannitol just before the treatment. 1.05 ml of this solution was added to 0.95 ml diluent for 2 mg/ml solution.
1.05 ml of this solution was added to 0.95 ml diluent for 2 mg/ml solution.
On day 21, mice were sorted by the optimal average tumor volume (˜150 mm^3) and were allocated into eight groups of 9 mice each.
[formula] The analysis of weight gain and tumor volume progression was made using one-way ANOVA followed by Tukey post-hoc comparisons. Results

The conditions of data set [9]: reported; cited from earlier work.
Where [10] appears, read: 80 mg/kg, Ester level in plasma at 1 hour, HSA nanoparticle.
Where [11] appears, read: 80 mg/kg, Ester level in plasma at 1 hour, Solution.
Where [12] appears, read: 80 mg/kg, Ester level in tumor at 1 hour, HSA nanoparticle.
Setting [13] is: 80 mg/kg, Ester level in tumor at 1 hour, Solution.
Where [14] appears, read: HSA nanoparticle, 80 mg/kg Free Base Eq.
Setting [15] is: Solution, 80 mg/kg Free Base Eq.
Setting [16] is: 20 mg/kg iv on days 1 and 2, day 46.
Setting [17] is: 37.5 mg/kg iv on days 1 and 2, day 46.
The mark [18] stands for this setting: Solution (TREANDA), 37.5 mg/kg Free Base Eq.

Like-named read-outs stand apart in the source and are kept apart here. Marks after values point to notes of the source that are not given here.

`CCCCCCCCCCCCCCOC(=O)CCCc1nc2cc(N(CCCl)CCCl)ccc2n1C` [Bendamustine C14 Ester, 4-{5-[Bis-(chloroethyl)-amino]-1-methyl-1H-benzimidazol-2-yl}butyric acid tetradecyl ester]: the concentration at 1 h in [1] (setting [10]) stood at 5730 ng/mL; in [1] (setting [11]) it was 14 ng/mL; in data set [1] (setting [12]), 10400 ng/mL; in data set [1] (setting [13]), 396 ng/mL; in [5] (setting [10]), 3650 ng/mL; in data set [5] (setting [11]), 32200 ng/mL. In addition, the concentration at 1 h in data set [5] (setting [12]) worked out at 4570 ng/mL; in [5] (setting [13]), 8570 ng/mL. Further, the “% Morbidity” value in data set [2] (setting [14]) amounted to 10%; in [2] (setting [15]) it was 100%; in [7] (HSA nanoparticle, 80 mg/kg) it was 60%; in data set [7] (Solution, 80 mg/kg), 40%. The “% Mortality” value came out at 0% in data set [2] (setting [14]); 40% in data set [2] (setting [15]); 0% in data set [7] (HSA nanoparticle, 80 mg/kg); 0% in data set [7] (Solution, 80 mg/kg). The “% Tumor Inh.” value in [2] (setting [14]) turned out to be 40%; in data set [2] (setting [15]), 81%; in data set [7] (HSA nanoparticle, 80 mg/kg), 86.5%; in [7] (Solution, 80 mg/kg), 90%. For the same molecule, the half-inhibitory concentration (IC50) in data set [3] was > 200 µM; in data set [6], 130 µM. The distribution volume (Vd) in data set [4] (30 mg/kg, 30 mg-eq/kg) is 3.2 L/kg; in data set [4] (55 mg/kg, 55 mg-eq/kg), 2.5 L/kg; in data set [4] (80 mg/kg, 80 mg-eq/kg), 5.2 L/kg. Besides, the AUC(0-t) in data set [4] (30 mg/kg, 30 mg-eq/kg) was found to be 31700 ng·h/mL; in data set [4] (55 mg/kg, 55 mg-eq/kg), 48900 ng·h/mL; in data set [4] (80 mg/kg, 80 mg-eq/kg), 46300 ng·h/mL. Further, the AUC(0-inf) amounted to 31700 ng·h/mL in data set [4] (30 mg/kg, 30 mg-eq/kg); 49000 ng·h/mL in data set [4] (55 mg/kg, 55 mg-eq/kg); 46500 ng·h/mL in data set [4] (80 mg/kg, 80 mg-eq/kg). Also, the clearance in data set [4] (30 mg/kg, 30 mg-eq/kg) was 24 mL/min/kg; in data set [4] (55 mg/kg, 55 mg-eq/kg), 29 mL/min/kg; in [4] (80 mg/kg, 80 mg-eq/kg) it was 56 mL/min/kg. Further, the half-life was 1.52 h in data set [4] (30 mg/kg, 30 mg-eq/kg); 0.98 h in data set [4] (55 mg/kg, 55 mg-eq/kg); 1.09 h in [4] (80 mg/kg, 80 mg-eq/kg).
As for `Cn1c(CCCC(=O)O)nc2cc(N(CCCl)CCCl)ccc21` [Bendamustine, 4-[5-[bis(2-chloroethyl)amino]-1-methylbenzimidazol-2-yl]butanoic acid], in data set [1] (37.5 mg/kg, BM1 level in plasma at 1 hour, Solution), the concentration at 1 h was found to be 906 ng/mL. In [1] (37.5 mg/kg, BM1 level in tumor at 1 hour, Solution), the concentration at 1 h is 558 ng/mL. In addition, in data set [8] (20 mg/kg iv on days 1 and 2), the “Max BW (mean) reduction” value is −2.7%, the “No. of TRD” value is recorded as 0 and the “No. og nTRD” value is on record as 0. In data set [8] (setting [16]), the “% TGI” value was 66*** %; the “No. of CR” value was determined as 0; the “No. of PR” value is recorded as 0; the “mean tumor volume, (mean ± se)” value is 205 ± 44. For the same molecule, in [8] (37.5 mg/kg iv on days 1 and 2), the “Max BW (mean) reduction” value was −6.2%, the “No. of TRD” value is reported as 0 and the “No. og nTRD” value is on record as 0. In [8] (setting [17]), the “% TGI” value was determined as 81%; the “No. of CR” value turned out to be 0; the “No. of PR” value stood at 0; the “mean tumor volume, (mean ± se)” value is given as 113 ± 23. In data set [2] (setting [18]), the “% Morbidity” value is reported as 0/0%, the “% Mortality” value is on record as 0/0% and the “% Tumor Inh.” value is listed as 41.5%. In addition, the half-inhibitory concentration (IC50) in data set [3] fell in the range of 13 to 16 µM. In data set [5] (37.5 mg/kg, BM1 level in plasma at 1 hour, Solution (TREANDA)), this molecule registered a concentration at 1 h of 1550 ng/mL. The same molecule returned a concentration at 1 h in data set [5] (37.5 mg/kg, BM1 level in tumor at 1 hour, Solution (TREANDA)) of 1470 ng/mL. Besides, the half-life in vivo in data set [9] was 6 to 10 min. Moreover, in data set [6], the half-maximal inhibitory concentration (IC50) lay within 4 to 26 µM. Moreover, in data set [7] (Solution, 37.5 mg/kg), the “% Morbidity” value was 10%, the “% Mortality” value is reported as 0% and the “% Tumor Inh.” value was 77%.
With `COC(=O)CCCc1nc2cc(N(CCCl)CCCl)ccc2n1C` [—CH3, 4-{5-[Bis-(2-chloro-ethyl)-amino]-1-methyl-1H-benzoimidazol-2-yl}-butyric acid methyl ester], the melting point was 60 to 63 °C (dec.). Further, the half-maximal inhibitory concentration (IC50) in data set [3] is 66 µM. Besides, the midpoint of inhibition in data set [6], the IC50, lay at 1.2 µM.
